# Data reported in patent publication US8507440B2, “Protein kinase C peptides for use in withdrawal” (The Board of Trustees of the Leland Stanford Junior …, priority 2002, dated 2013).
# Ends that are not written are not given here.
# Tests used:
# [1] = tested on: 7 day old and 21 day old rats; test: ethanol withdrawal mechanical allodynia testing (von Frey threshold withdrawal force); assay type: in vivo, rat
# postnatal day 7 rats [2] = test: natural morphine withdrawal, mechanical allodynia and thermal hyperalgesia in vivo; parameters: species or system rat; settings: 10 μM intrathecally 2.5 hours after morphine 1 mg/kg; p<0.05 versus Tat carrier or saline
# Protocol: Another study was performed to investigate the roles of PKC isozymes in natural withdrawal, which more closely resembles the clinical setting in addictive sequela. In this study, postnatal day 7 rats were given a single injection of morphine (1 mg/kg) and allowed to undergo natural withdrawal, i.e., naloxone was not administered to precipitate withdrawal. The treatment protocol is shown in FIG. 6A, where 2.5 hours after morphine delivery, εV1-2 or γV5-3 peptide inhibitors were administered intrathecally. Mechanical allodynia and thermal hyperalgesia were evaluated at hourly intervals according to the procedure described in Example 2.
# To measure mechanical thresholds, rats were placed on an elevated wire mesh (2 mm openings). Von Frey hairs (Stoelting Co., WoodDale, Ill., USA) were used to elicit a cutaneous flexion withdrawal response as described by Fitzgerald et al. (Fitzgerald M., et al., PAIN […] INFANTS, CHILDREN AND ADOLESCENTS; Schetchter and Yaster, Eds., pp 11-32, Williams and Williams (Baltimore, Md.) (1993). Von Frey hairs of increasing intensity were applied three times to the plantar surface of the left hind paw until a paw withdrawal was elicited. The lowest intensity Von Frey hair required to produce a withdrawal reflex was recorded as the response threshold to a low-intensity mechanical stimulus. […]
# postnatal day 7 rats [3] = test: naloxone-precipitated morphine withdrawal, mechanical threshold and thermal paw withdrawal latency in vivo; parameters: species or system rat; settings: 10 μM in 5 μl intrathecally prior to morphine 1 mg/kg s.c.; naloxone 0.25 mg/kg 30 min after morphine
# Protocol: In vivo studies on opiate withdrawal allodynia and hyperalgesia were conducted using postnatal day 7 rats. As described in Example 2, postnatal day 7 rats were given morphine subcutaneously followed 30 minutes later by naloxone or saline. Mechanical threshold using von Frey filaments to produce the flexion withdrawal response of the hind paw and thermal stimulation to measure the paw withdrawal latency were measured as described in Example 2.
# FIG. 5A illustrates a treatment protocol where rat pups were given a PKC antagonist intrathecally (e.g., directly into the cerebrospinal fluid surrounding the spinal cord) prior to subcutaneous morphine delivery. Thirty minutes after morphine delivery, naloxone was administered, followed by mechanical allodynia and thermal hyperalgesia testing (as described in Example 2).
# Postnatal day 7 Sprague-Dawley rats (Charles River Laboratories) of both sexes were used. For all behavioural experiments rats were maintained at nesting temperature with overhead heatlamps.
# To measure mechanical thresholds, rats were placed on an elevated wire mesh (2 mm openings). Von Frey hairs (Stoelting Co., WoodDale, Ill., USA) were used to elicit a cutaneous flexion withdrawal response as described by Fitzgerald et al. (Fitzgerald M., et al., PAIN […] INFANTS, CHILDREN AND ADOLESCENTS; Schetchter and Yaster, Eds., pp 11-32, Williams and Williams (Baltimore, Md.) (1993). Von Frey hairs of increasing intensity were applied three times to the plantar surface of the left hind paw until a paw withdrawal was elicited. The lowest intensity Von Frey hair required to produce a withdrawal reflex was recorded as the response threshold to a low-intensity mechanical stimulus.
# Thermal paw withdrawal latencies were measured using the Ugo Basile Plantar Testing apparatus (Stoelting Co., WoodDale, Ill., USA). Briefly, postnatal day 7 rats were placed under inverted Plexiglas enclosures and the plantar surface of the left hindpaw was heated from below with the IR intensity of the lamp set at 30. Two baseline thermal response latency measures were collected prior to morphine administration with a cut-off of 20 seconds enlisted to prevent tissue damage.
# Postnatal day 7 rats were administered 1 mg/kg morphine sulfate (Sigma) subcutaneously in 50 μl saline. Mechanical thresholds were measured 15 minutes later to establish analgesia. Rats were returned to their dam. At 30 or 120 minutes post morphine, rats were administered 0.25 mg/kg naloxone (Sigma) subcutaneously in 50 μl saline. Mechanical thresholds and thermal paw withdrawal latencies were measured in 10 minute intervals. Tat conjugated peptide inhibitors specific to the ε (εV1-2; SEQ ID NO:1, 10 μM) and γ ([…]; SEQ ID NO:2, 10 μM) isoforms of PKC, Tat carrier (10 μM), or saline were administered in 5 μl volumes intrathecally via direct lumbar puncture using a sterile 29 gauge 3/10 cc insulin syringe in rats lightly anesthetized with halothane. To allow for complete recovery from anesthetic, animals were administered peptides or control solutions 30 minutes prior to naloxone.
# An unpaired T-test was used to determine the significance of post-naloxone measures from baseline measures. Significance between treatment groups for PKC inhibitor studies both in vivo and in vitro was determined by one way analysis of variance (ANOVA) followed by a post-hoc Bonferroni analysis. P-values<0.05 were considered significant. All statistical analysis was done with GraphPad Prism version 3.02.
# γPKC = target: T1, γPKC (Rattus norvegicus, UniProt P63319); assay type: cell-based
# T1 construct: from tissue; host or cells: lumbar spinal cord slices of postnatal day 7-10 Sprague-Dawley rats
# Protocol: Fluorescence immunocytochemical studies were performed on the spinal cord sections, as described in Example 3. The sections were incubated with an anti-γPKC antibody and an anti-neuronal antibody to identify neurons. […] Translocation of γPKC was quantified by counting the number of cells with γPKC localized to the nucleus before (control) and after application of ethanol, as well as after washing with artificial cerebrospinal fluid. […] Two to three sections per animal were counted.
# Fluorescence immunocytochemical studies were performed on spinal cord sections […] from control slices (perfused with ACSF for 70 minutes) and EtOH treated slices (perfused with ACSF for 30 minutes followed by 20 min 100 mM EtOH and 20 min wash with ACSF). The sections were incubated with a rabbit anti-PKCg polyclonal antibody (1:500) overnight at 4° C. In some cord sections, a mouse anti-neuronal nuclei monoclonal antibody (NeuN, 1:750) was added to identify neurons. After several washes with ACSF, the sections were labeled for 2 hours at room temperature with fluorescein-labeled secondary antibodies (1:500). Double immunofluorescence was assessed with a laser confocal microscope.
substance,measurement,setting,value
RLVLAS (also: Tat peptide conjugate; listed as Homo sapiens) [γV5-3],"mechanical allodynia, threshold withdrawal force","[1]; 7 day old rats, 5 μL of 20 μM intrathecally 5 hours after 4 g/kg 15% EtOH i.p., 6 and 7 hour post-EtOH, versus Tat carrier",attenuated mechanical allodynia
same,"mechanical allodynia, threshold withdrawal response","[1]; 21 day old rats, 10 μL of 20 μM intrathecally 4 hours after 4 g/kg 15% EtOH i.p.",prevented a decrease in threshold withdrawal response
same,mechanical allodynia and thermal hyperalgesia during natural withdrawal from morphine,postnatal day 7 rats [2],attenuated mechanical allodynia and thermal hyperalgesia
same,block of naloxone-precipitated morphine withdrawal allodynia and hyperalgesia,postnatal day 7 rats [3],had a smaller blocking effect
same,number of cells having γPKC localized in the nucleus,γPKC; peptide applied 20 minutes prior to ethanol,about 14
same,block of γPKC translocation to the cytoplasm,γPKC; peptide applied prior to ethanol exposure,effective to block γPKC translocation to the cytoplasm
